“Also recorded” adds a separate entry of the source. Peptide text beside a SMILES is read from it.
What was measured:
[1] = test system: lymphocyte proliferation in the human MLR; format: cell-based
Protocol: Whole blood from donors was obtained from Interstate Blood Bank, Memphis, Tenn. Blood specimens were handled in a biosafety level 2 containment facility as recommended for potentially infectious blood specimens in the CDC/NIH manual Biosafety in Microbiological and Biomedical Laboratories; 3rd edition, 1993, page 10. Peripheral blood mononuclear cells (PBMC) were separated from red blood cells and granulocytes by ficoll-hypaque purification. Whole peripheral blood was diluted 1:2 in PBS and 30 ml was overlayed onto 15 ml of ficoll-hypaque in 50 ml polypropylene tubes. The tubes were spun at 400×g for 30 min at 25° C. Following centrifugation, the interface between the upper plasma layer and the lower ficoll layer was collected, cells washed in RPMI-1640 2×, and viable counts determined using trypan blue. Cells to be used as responders in the assay were stored on ice until mitomycin C treatment of stimulator cells was completed.
PBMC, isolated as described above, to be used as stimulators in the assay were adjusted to 2-4×10^6 cells/ml in complete medium (RPMI 1640 containing 10% heat-inactivated human AB serum, 2 mM glutamine, 50 μM 2-mercaptoethanol and 100 U/ml penicillin-100 μg/ml streptomycin), and treated with mitomycin C (25 μg/ml) for 30 min in a 37° C. water bath. Following treatment, cells were washed with S volumes of complete medium 3×, and viable counts determine using trypan blue. To set up autologous stimulation controls some responder cells were also treated with mitomycin C as mentioned above.
Purified CTLA-4Ig fusion protein was produced, as described in Steurer et al. 1995, from a NS-1 cell line kindly donated by Dr. T. Strom (Beth Israel Hospital, Boston, Mass.) as a 1 mg/ml solution in sterile PBS. The protein was stored frozen at −80° C. Upon thawing, the aliquot was stored at 4° C. Purified peptides were lyophilized according to known procedures. Peptides were reconstituted in sterile PBS, pH 7.4 at 2 mM concentration, aliquoted in microfuge cubes and stored frozen at −20° C. For the assay, an aliquot of the peptide was thawed and diluted to 200 μM in complete medium.
For the one-way allogeneic mixed lymphocyte response (MLR) assay, responder cells were plated at 10^6 cells/well, and stimulator cells at 5×10^4 cells/well in 96-well round bottom plates. Cells were incubated with serial dilutions of the anti-CD4 Ab Leu 3A (1 μg/ml-0.06 μg/ml) in triplicate, or an isotype-matched control Ab. Cyclosporin A at 1 μg/ml was used as an additional control.
CTLA-4 Ig was serially diluted an.4 tested from 10 μg/ml to 0.15 μg/ml. Peptides were tested either directly or in the presence of a constant spiked-in dose of CTLA-4 Ig at 0.5 μg/ml. The plates were incubated at 37° C. in a humidified 5% CO2 atmosphere for 7 days.
Proliferation of the cells was determined by pulsing the wells with ^3H-Tdr (1 μCi/well) for the last 18 h of the assay. Plates were harvested using a Tomtec -late harvester and the counts incorporated determined using a Wallac microbetaplate plus reader.
A total of 34 peptides were tested for inhibition of lymphocyte proliferation in the human MLR. Each peptide was tested in a MLR at doses ranging from 12.5 to 100 μM. The activity of each peptide was identified by assigning a + and − tone peptide depending on its ability to inhibit lymphocyte proliferation in the MLR (cpms).

[2] = test system: binding of CTLA-4Ig to B7 on Cess B cells; assay: CTLA-4Ig/B7 binding assay on Cess B cells by FACS; conditions: FACS; assays of 3/24, 3/25, 4/5, 4/25; one symbol per assay
Protocol: +++ was assigned if the peptide tested gave >50% change in cpm in a dose dependent fashion. In addition to the MLR, these 34 peptides were also evaluated in a CTLA-4Ig/B7 binding assay in which the ability of these peptides to affect the binding of CTLA-4Ig to B7 on Cess B cells was examined by FACS analysis.
As with the MLR, a + or − was assigned to each peptide depending on its ability to effect CTLA-4Ig binding to Cess B cells; where − represents no change in binding, + represents a minor change of <10% in binding, and a ++ represents a change of >20% in binding.

Jurkat cells = assay: Toxicity test on growing cell cultures; format: cell-based; conditions: 100 μM AT 199
Protocol: (§1) To determine if the activity of AT 199 was due to a specific effect on lymphocyte proliferation in the MLR or due to a non-specific inhibition of lymphocyte proliferation in general (i.e., toxicity), the toxicity of AT 199 was tested against THP-1, Jurkat, and resting and activated PBLs.
(§2) AT 199 and its control analogs were assayed for overt toxicity and non-specific inhibition. The peptides were added to growing cultures of THP-1 cells, Jurkat cells and primary peripheral blood lymphocytes (PBLs).

THP-1 cells = assay: Toxicity test on growing cell cultures; format: cell-based; conditions: 100 μM AT 199
Protocol: as §1, §2

[3] = test system: primary peripheral blood lymphocytes (PBLs); assay: Toxicity test on growing cell cultures; format: cell-based, human; conditions: 100 μM AT 199
Protocol: as §1, §2

PHA activated PBLs = assay: Mitogen (PHA) stimulation assay of PBL, 3H-Tdr incorporation; format: cell-based, human; conditions: for effect on PHA activation of PBLs / PHA stimulated T cells: in words
Protocol: For these assays, ficoll-hypaque purified PBMC (10^5 cells/well) were incubated in flat-bottom 96-well tissue culture plates with indicated concentrations or phytohemagglutinin (PHA; 5, 2.5, 1.25, 0.5 μg/ml) for 3 days at 37° C. in a humidified 5% CO2/air incubator. Cells were incubated in the presence or absence of various concentrations of CTLA-4 Ig, purified anti-CD80 mAb (1 μg/ml), anti-CD86 mAb (1 μg/ml), and peptides 199 and 201 serially diluted from 100 μM to 12.5 μM for the period of the assay.
Proliferation of the cells was determined by pulsing the wells with ^3H-Tdr (1 μCi/well) for the last 6 h of the assay. Plates were harvested using a Tomtec plate harvester and the counts incorporated determined using a Wallac microbetaplate plus reader.
AT 199 was tested for inhibition of PHA activated PBLs. PHA activation, while not specifically targeted at the CD28 pathway, has some dependence on this pathway depending on the concentration of PHA used to activate lymphocytes. To determine the […] of phytohemagglutinin (PHA) activation on CD28 signaling, CTLA-4Ig was included in each assay.
In order to test for an unanticipated mechanism of inhibition, AT 199 was assayed using PHA-stimulation of PBLs. Phytohemagglutinin (PHA) is a lectin extracted from the red kidney bean and is a mixture of five tetrameric glycoprotein. PHA stimulates T cells in the presence of accessory cells (but not B cells) by cross-linking a variety of critical T cell surface molecules, including CD3, CD2, CD4, CD8 and LFA-1 (Geppert, 1992). The involvement of CD28 in this stimulation is dependent on the degree of crosslinking by PHA. At the appropriate concentration of PHA, the simultaneous engagement of cell surface receptors results in a proliferation response that can bypass the need for specific costimulatory signals such as CD28. This can be monitored by examining CTLA-4Ig inhibition of PHA mitogenesis.

[4] = test system: murine MLR splenocyte proliferation; assay: One-way murine MLR (C57Bl/6 stimulators, BalB/c responders); format: cell-based, mouse; conditions: 10 μg/ml CTLA-4Ig; stated as similar to AT 199.3
Protocol: One-way murine MLRs were set up using the C57Bl/6 mice splenocytes as stimulators and BalB/c splenocytes as responders.
Spleens were excised from mice (Jackson Laboratories, Bar Harbor, Ma.) 6-8 weeks of age. Cells were separated from the capsule using sterile frosted glass slides and washed in cold RPMI 1640 1×. Red blood cells were lysed by treating the spleen cell suspension with cold Tris ammonium chloride buffer (2 ml/spleen) for 3 min on ice. After lysis, the cells were washed 2× in 5 volumes of complete medium (RPMI 1640 containing 10 % heat-inactivated FBS, 2 mM glutamine, 50 μM 2-mercaptoethanol, 100 U/ml penicillin-100 μg/ml strepcomycin, 1 mM sodium pyruvate and 1 mM non-essential amino acids).
Plastic-adherent cells were removed from splenocytes of BalB/c mice by adjusting the cell concentration to 3×10^6 cells/ml in complete medium and incubating the cells for 1.5-2 h at 37° C. in T-75 flasks. Following incubation non-adherent cells were collected by gently washing the flasks and the percent recovery determined (60-70%). Bal b/C responder cells were stored on ice until mitomycin C treatment of stimulator cells was completed.
Following RBC lysis splenocytes of C57Bl/6 mice were adjusted to 2-4×10^6 cells/ml in complete medium and treated with mitomycin C (50 μg/ml) for 30 min at 37° C. in a humidified 5% CO2 in air atmosphere. Following treatment, cells were washed with 5 volumes of complete medium 3×, and viable counts determined using trypan blue.
To set up autologous stimulation controls some responder cells were also treated with mitomycin C as mentioned above.
For the assay, responder and stimulator cells were plated at 10^5 cells/well in 96-well round bottom plates. […]
Appropriate scrambled peptide controls and matrix controls were included in every assay. […] Proliferation of the cells was determined by pulsing the wells with 3H-Tdr (1 μCi/well) For the last 6 h of the assay. Plates were harvested and the counts incorporated determined as described above.

B7-1 = biological target: T1, B7-1 (Homo sapiens, UniProt P33681); conditions: CTLA-4Ig vs CD28Ig, higher affinity; cited from earlier work
T1 sequence (P33681 35-288): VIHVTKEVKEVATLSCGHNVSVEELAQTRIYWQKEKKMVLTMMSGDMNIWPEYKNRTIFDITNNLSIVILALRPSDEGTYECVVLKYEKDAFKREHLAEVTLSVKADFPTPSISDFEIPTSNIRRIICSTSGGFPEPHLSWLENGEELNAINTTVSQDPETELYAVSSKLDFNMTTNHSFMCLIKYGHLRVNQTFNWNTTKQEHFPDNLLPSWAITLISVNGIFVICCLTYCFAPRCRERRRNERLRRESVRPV

[5] = test system: Th1-type cytokines and antigen specific T cells; conditions: delayed administration of the protein; cited from earlier work

Row | Compound | IC50 [1] [µM] | Human MLR (ability to inhibit lymphocyte proliferation, cpm) ([1]; peptide 12.5 to 100 μM, assays of 1/24, 1/31, 3/6, 4/17, 5/2, one symbol per assay) | human MLR assays in which the peptide was active ([1]; total of 6 human MLR assays) | Binding Assay (effect on CTLA-4Ig binding to Cess B cells) [2] | inhibition / effect on growth of Jurkat cells (Jurkat cells) | inhibition / effect on growth of THP-1 cells (THP-1 cells) | inhibition / effect on growth of resting primary PBLs [3] | effect on PHA activation of PBLs / PHA stimulated T cells (PHA activated PBLs) | inhibition of the murine MLR [4] [%] | inhibition of PHA activation (PHA activated PBLs; 10 μg/ml CTLA-4Ig, PHA 2.5 and 5 μg/ml (FIG. 11)) | affinity for B7-1 relative to CD28Ig (B7-1) | blunted expansion of antigen specific T cells [5] [%] | reduction in Th1-type cytokines [5]
1 | CSCC[C@@H]1NC(=O)[C@H](CC(C)C)NC(=O)[C@@H](NC(=O)[C@H](CCCCN)NC(=O)[C@@H](N)CCCNC(=N)N)CSSC[C@@H](C(=O)N[C@@H](Cc2c[nH]cn2)C(=O)N[C@@H](Cc2c[nH]cn2)C(N)=O)NC(=O)[C@H](Cc2ccc(O)cc2)NC(=O)[C@H](Cc2ccc(O)cc2)NC(=O)[C@@H]2CCCN2C(=O)[C@@H]2CCCN2C(=O)[C@@H]2CCCN2C(=O)[C@H](Cc2ccc(O)cc2)NC1=O [AT 199.1, RKCLMYPPPYYCHH] (HELM PEPTIDE1{R.K.C.L.M.Y.P.P.P.Y.Y.C.H.H.[am]}$PEPTIDE1,PEPTIDE1,3:R3-12:R3$$$V2.0; N-terminus assumed) | 50 to 100 | +, +, + | 5 out of 6 | +, +, + | no inhibition; also recorded: No effect | no inhibition; also recorded: No effect | no inhibition; also recorded: No effect | only a minor effect; also recorded: did not inhibit |  |  |  |  | 
2 | CTLA-4Ig: Purified CTLA-4Ig fusion protein (murine) produced from a NS-1 cell line as in Steurer et al. 1995 |  |  |  |  |  |  |  | inhibited PHA activation slightly | ~85 | 40-50% | 20-100 fold | 50 | 80-90%

Reference: patent US6337316B1, “Pharmaceutical compositions thereof, and methods of using same” (Applied Research Systems ARS Holding N.V., priority 1997, dated 2002)
